This is an account of results in article PMC4837355, “Receptor residence time trumps drug-likeness and oral bioavailability in determining efficacy of complement C5a antagonists” (Scientific Reports, 2016).

“And” between values parts separate entries of the source, which are not always exact repeats. Equal entries are not always repeated. Where two headings read alike, the source gives them in different places.

A short description of one data set: in vivo. The conditions noted are these: rat; for F (oral availability): 1 mg/kg i.v. versus 10 mg/kg p.o. As to the method:
(§1) Paw oedema was induced in male Wistar rats by intraplantar administration of C5aR-PA (350 μg per paw in 100 μL of saline control). Paw swelling (% area change from baseline) was recorded at indicated timepoints. […] C5aR antagonist was administering as an intravenous dose (1 mg/kg via an implanted jugular vein catheter in 50:50 DMSO/saline) versus an oral dose (10 mg/kg in olive oil, via gavage). Plasma was collected at various time points and analyzed. Error bars are means ± SEM normalized to maximal swelling of saline control. *p < 0.05, **p < 0.01 and ***p < 0.001 by student t-test.
(§2) Male Wistar rats (6–8 wk, 250 ± 50 g) were bred at the Animal Resources Centre (Canning Vale, Australia) and housed post-shipment at the Australian Institute for Bioengineering and Nanotechnology (University of Queensland, Brisbane). […] After specific time-points, C5aR-PA was administered into the right hind paw pad (350 μg in 100 μL saline, i.pl). The left hind paw acted as a control, receiving saline only (100 μL). Rear paw thickness and width were measured at 1 h (and periodically over 4 h) post-injection using digital callipers (World Precision Instruments, Sarasota, FL, USA) and swelling was expressed as area (mm^2; thickness × width) and plotted as percentage change from baseline of each individual paw. […] Plasma was collected at various time points (0, 5, 15, 30 min, 1, 2, 3, 4, 6 and 8 h) from the jugular vein catheter and analyzed for antagonist concentrations using LCMS as described. The animal ethics committee of The University of Queensland approved all experiments according to NHMRC guidelines for the care and use of laboratory animals and in accordance with ARRIVE guidelines for reporting experiments involving animals. A total of N animals were used in each experiment as described.
Supplementary Table 1. Pharmacokinetics parameters of C5aR antagonists in
aC5aR antagonist were administered 1 mg/kg i.v. and 10 mg/kg p.o.
Vdss; volume of distribution steady
Cmax; maximal plasma concentration reached
Tmax; time of maximal Cmax
F; Fraction of intact compound absorbed to plasma (oral availability)
Supplementary Table 2. Primer sequences for target genes.

The conditions of data set [1]: in vivo; cited from earlier work.
In data set [2] the target is T1, C5aR (Homo sapiens, UniProt P21730).
T1 sequence (P21730 1-350): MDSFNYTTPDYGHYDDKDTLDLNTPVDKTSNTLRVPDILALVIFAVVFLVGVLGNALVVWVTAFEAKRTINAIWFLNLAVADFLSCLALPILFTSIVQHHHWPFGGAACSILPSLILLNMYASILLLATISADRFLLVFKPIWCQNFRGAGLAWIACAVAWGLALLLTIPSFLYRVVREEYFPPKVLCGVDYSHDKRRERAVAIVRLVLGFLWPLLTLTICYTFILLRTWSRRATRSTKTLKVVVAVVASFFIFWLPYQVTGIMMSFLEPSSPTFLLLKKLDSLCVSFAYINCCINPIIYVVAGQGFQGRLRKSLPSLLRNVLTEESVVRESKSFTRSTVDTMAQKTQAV
Method: A scintillation proximity assay was used to measure the affinity of C5aR antagonists as described[39]. […] Radioligand binding was then analyzed using a Microbeta scintillation counter (PerkinElmer).

Data set [3] relates to C5aR. On the set-up: method as in PMID 18595693. As to conditions: inhibition of Ca2+ release versus […] rhC5a on U937 cells; read-out: Antagonist IC50; cited from earlier work.
For data set [4], the target named is T2, C5aR (Rattus norvegicus, UniProt P97520).
T2 construct: C5aR-mediated rat paw oedema was induced by intraplantar administration of 350 μg C5aR-PA per hind paw; from tissue; host or cells: living male Wistar rats (hind paw)
T2 sequence (P97520 1-352): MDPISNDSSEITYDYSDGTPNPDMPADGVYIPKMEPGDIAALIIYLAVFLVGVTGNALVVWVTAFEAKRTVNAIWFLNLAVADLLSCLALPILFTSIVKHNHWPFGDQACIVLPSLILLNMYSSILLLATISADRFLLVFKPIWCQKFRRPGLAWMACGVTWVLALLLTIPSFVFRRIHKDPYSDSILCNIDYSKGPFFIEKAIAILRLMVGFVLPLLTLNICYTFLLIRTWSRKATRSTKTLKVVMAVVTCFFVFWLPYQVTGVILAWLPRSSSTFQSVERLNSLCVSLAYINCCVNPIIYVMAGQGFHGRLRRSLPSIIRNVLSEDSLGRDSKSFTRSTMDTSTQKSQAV
Briefly: C5aR-PA-induced rat paw oedema. Format: in vivo, male Wistar rats. As to conditions: for Effect on paw swelling after 2 h / Reduction in paw swelling: 30 mg/kg p.o.; for Reduction in paw swelling: at 30 min post-injection of C5aR-PA. The procedure:
as §1
as §2, with “C5aR-mediated rat paw oedema was induced by intraplantar administration of 350 μg C5aR-PA per hind paw (Supplementary Fig. 5A). […] Male” for “Male”

Data set [5] concerns the target T1, C5aR. Put plainly: C5a-induced inflammatory gene expression in HMDM (real-time PCR). As to conditions: 1 μM antagonist, 10 nM C5a at 16 h post-antagonist treatment. On the technique in general: In qPCR the cycle at which signal appears reflects the starting amount.
Method: Real-time PCR analyses were conducted to further check the effect of residence time in other assays. […] Gene expression was measured by real-time PCR, normalized against 18S and converted to fold change relative to control.
RNA was extracted from cells using ISOLATE II RNA Kit (Bioline) following manufacturer’s instructions. Real-time PCR was performed using 7900HT real-time with SYBR® Green PCR master mix (Applied Biosystems) and primers. Relative gene expression was normalized against 18S rRNA expression and expressed as fold change against control samples.
Data set [6] deals with T1, C5aR. Put plainly: Washout residence time, calcium release in antagonist-pretreated HMDM. As to conditions: HMDM pre-treated 1 μM antagonist 1 h, washed, challenged with 3 nM C5a.
From the text: Intracellular calcium release was induced in HMDM as described[40] and measured using a FLIPR instrument (Molecular Devices).
Data set [7] has as its target T1, C5aR. Put plainly: Intracellular calcium release assay in HMDM against rhC5a. As to conditions: for IC50: HMDM calcium release. A general note: Calcium assays in cells follow changes in intracellular calcium, usually with a dye or a luminescent sensor.
Method: The concentration-response curves for calcium mobilization induced by rhC5a were determined in the presence of escalating concentrations of each of the three antagonists (Fig. 2D–F). […] Error bars are means ± SEM of three independent experiments (n = 3).
Figure 3 Dependence of antagonist potencies (IC50) on C5a concentration in human monocyte-derived macrophages. […] Calculated pIC50 ± SEM and IC50 values for the three C5aR antagonists are summarized in the table versus concentration of C5a. Error bars are means ± SEM of three independent experiments (n = 3).
Data set [8] addresses T1, C5aR. Put plainly: In vitro migration (chemotaxis) assay of HMDM. Format: cell-based. On the set-up: monocytes were isolated from buffy coats of anonymous donors; endogenous in cells; host or cells: primary human monocyte-derived macrophages (CD14+ monocytes from donor buffy coats, matured with M-CSF). The conditions noted are these: antagonist 1 μM, 1 h then washed; 3 nM C5a for 16 h. From the text:
Antagonists with a short residence time will be ineffective in this assay, because once the antagonist has dissociated from C5aR, C5a immediately binds and induces migration. […] Chemotactic index is expressed as fold change against control. […] Excess unbound antagonists were washed with serum-free medium and HMDM (0.1 × 10^6 cells/mL) then seeded into 5 μm Transwell inserts (Corning) creating a modified Boyden chamber. […] Migrated cells on the lower side of the membrane were stained with DAPI and counted. The chemotactic index was expressed as fold change versus control.

Data set [9] deals with C5aR. As to conditions: inhibition of Ca2+ release versus 0.1nM rhC5a on neutrophils; read-out: Antagonist IC50; cited from earlier work.
A further data set relates to C5a-induced neutropenia. On the set-up: method as in PMID 12384495. The conditions noted are these: cited from earlier work.
Setting [10] is: male, Wistar, plasma, intravenous, 1 mg/kg.
Setting [11] is: male, Wistar, plasma, iv, 1 mg/kg.
Setting [12] is: male, Wistar, plasma, oral, 10 mg/kg.
The mark [13] stands for this setting: male, Wistar, plasma, po, 10 mg/kg.

On to `CC(=O)N[C@@H](Cc1ccccc1)C(=O)N[C@H]1CCCNC(=O)[C@H](CCCNC(=N)N)NC(=O)[C@H](Cc2c[nH]c3ccccc23)NC(=O)[C@@H](CC2CCCCC2)NC(=O)[C@@H]2CCCN2C1=O` [3D53, Ac-Phe-[Orn-Pro-D-Cha-Trp-Arg]], for which the Tmax (commonly the time at which the peak concentration occurs) in “in vivo” (male, Wistar, in vivo, po) is 50 min. In “in vivo” (in vivo), the maximum concentration (Cmax) (usually the maximum level reached in the sampled fluid or tissue) was 17.5 ng/mL; the Vd came to 4.1 L/kg; the clearance worked out at 52.1 mL/min/kg; the half-life – broadly, how long it takes for the measured level to halve – came out at 21.6 min. In addition, in “in vivo” (in vivo, iv, 1 mg/kg), the AUC (commonly concentration integrated over time) is 323 ng·h/mL. Also, in the data set “in vivo” (in vivo, po, 10 mg/kg), the AUC was 76.6 ng·h/mL. The Safety and tolerability entry in data set [1] is “safe and well tolerated”.
Take `CCc1cccc(CC)c1-c1cc(OC(C)C)c2c(n1)CCCC2Nc1ccccc1CCO` (stereo not drawn) [JJ47]: the Ki (usually the dissociation constant of the complex between target and ligand, obtained from inhibition or displacement) on C5aR [2] is 316 nM. Further, the IC50 – broadly, the midpoint of a concentration-inhibition curve – with C5aR [3] was 7 nM; on C5aR [7] (IC50, C5a 1 nM) it was 2 nM; at C5aR [7] (IC50, C5a 3 nM), 10 nM; at C5aR [7] (IC50, C5a 10 nM), 122 nM; at C5aR [7] (IC50, C5a 30 nM), 509 nM; at C5aR [7] (IC50, C5a 100 nM), 632 nM. Besides, the IC50 at C5aR [7] (IC50, C5a 300 nM) was 1070 nM; on C5aR [7] (pIC50 ± SEM, C5a 1 nM), 1.58 nM. Besides, the “Effect on paw swelling after 2 h” value on C5aR [4] is “not much different to W54011”. Also, the “Reduction in paw swelling” value on C5aR [4] stood at 15%. The half-life in “in vivo” (male, Wistar, plasma) is 43.2 min. Besides, the Vd in the data set “in vivo” (setting [10]) came out at 3.5 L/kg. The molecule also returned a clearance in “in vivo” (setting [10]) of 41 mL/min/kg. The figures for the AUC in “in vivo” (setting [11]) and in “in vivo” (setting [13]) were 410 ng·h/mL and 501 ng·h/mL, respectively. The molecule further showed a Cmax in the data set “in vivo” (setting [12]) of 127 ng/mL. In addition, the “F (oral availability)” value in the data set “in vivo” was 12.2% and ~ 12%. Besides, on C5aR [5], the “Block of C5a-mediated expression of TNF, IL1B, CCL3 and PTGS2” value is reported as “did not”. Also, the “Half-life t1/2 ± SEM (residence time on C5aR)” value on C5aR [6] amounted to 36 ± 12 min. For the same molecule, the Kb on C5aR [7] is 5.01 nM. At C5aR [7] (C5a concentration-response curves with escalating antagonist, HMDM), the Antagonist mechanism result is on record as “surmountable antagonists”. Also, the Schild plot slope on C5aR [7] (against rhC5a, calcium release, HMDM) came to 0.94. For the same molecule, at C5aR [8], the “Block of C5a-induced migration” value was “not effective antagonists”.
With `COc1ccc2c(c1)C(C(=O)N(Cc1ccc(N(C)C)cc1)c1ccc(C(C)C)cc1)CCC2` (stereo not drawn) [W54011], the concentration for half-maximal inhibition (IC50) with C5aR [9] is 3 nM; at C5aR [7] (IC50, C5a 3 nM), 9 nM; on C5aR [7] (IC50, C5a 10 nM) it was 24 nM; on C5aR [7] (IC50, C5a 30 nM) it was 55 nM; on C5aR [7] (IC50, C5a 100 nM), 350 nM; on C5aR [7] (IC50, C5a 300 nM), 1460 nM. For the same molecule, the IC50 on C5aR [7] (pIC50 ± SEM, C5a 1 nM) was 3.98 nM; on C5aR [7] (pIC50 ± SEM, C5a 3 nM) it was 7.94 nM. The affinity at C5aR [2], expressed as Ki, was 79.4 nM. The “Doses blocking C5a-induced gerbil neutropenia” value in the data set with C5a-induced neutropenia is 3 to 30 mg/kg. Moreover, at C5aR [4] (5 mg/kg per oral), the “Block of C5aR-PA-induced paw swelling” value is “did not block”. Moreover, at C5aR [4] (10 mg/kg p.o.), the “Effect on C5aR-PA-induced paw swelling” value is given as “did not have much effect”. Besides, the “Effect on paw swelling after 2 h” value at C5aR [4] is “no longer effective”. In addition, the “Reduction in paw swelling” value on C5aR [4] is 35%. The same molecule showed a half-life in “in vivo” (male, Wistar, plasma) of 124 min. The molecule further returned a Vd in “in vivo” (setting [10]) of 18.3 L/kg. In the data set “in vivo” (setting [10]), this molecule returned a clearance of 82.8 mL/min/kg. In addition, the AUC amounted to 212 ng·h/mL in the data set “in vivo” (setting [11]) and 1570 ng·h/mL in “in vivo” (setting [13]). In “in vivo” (setting [12]), this molecule yielded a Cmax of 484 ng/mL. Also, the bioavailability (commonly dose-corrected exposure relative to a reference, in per cent) in the data set “in vivo” (setting [13]) was 74.3%. Moreover, the “F (oral availability)” value in the data set “in vivo” is given as ~ 74%.
